Source: patent US20240317866A1, “Use of Anti-EGFR/Anti-Met Antibody to Treat Gastric or Esophageal Cancer” (Janssen Biotech, Inc., priority 2022, published 2024)

Tests used:
[1] = tested on: gastric cancer (GC, including GEJ cancer) expressing EGFR and/or cMet; experiment: Phase 2a study of amivantamab monotherapy, gastric cancer cohort: response by RECIST Version 1.1, investigator judgement; format: in vivo, human
Source text: Approximately 30 participants with any expression level of EGFR, cMet, or both proteins are enrolled in each of the Phase 2a cohort. However, based on the priorexperiences investigating anti-EGFR andanti-cMet antibodies in gastroesophageal cancers, at least 20 participants expressing IHC 2+ or higher (defined as participants expressing EGFR IHC 2+ or above and/or cMet IHC 2+ or above) are enrolled. Additional enrollment in Phase 2a cohorts may be allowed to achieve this minimal enrollment.
This is an open-label, multicenter, multi-arm Phase 2 interventional study in participants with previously treated advanced or unresectable GC or EC who are 20 years or older (or the legal age of consent in the jurisdiction in which the study is taking place). Japanese participants with gastric/GEJ or EC who express varying degrees of EGFR, cMet, or both as determined by IHC locally or centrally are enrolled in the GC cohort or EC cohort.
The baseline disease assessments are performed as close as possible to the start of treatment, but no more than 28 days prior to the first dose. Subsequent assessments are performed at 6 weeks (+1 week) after initiation of study treatment administration, then every 6 weeks (±1 week) for the first 12 months and then every 12 weeks (±1 week) until objective radiographic disease progression. Timing for each disease assessment is relative to the first dose of study treatment administration, regardless of dose modifications, and continues until disease progression. Any other site at which new disease is suspected is also imaged.
For purposes of analysis, the following populations are defined: • (1) All Treated population: All participants who take at least 1 dose of study treatment; • (2) Response evaluable population: All participants who satisfy the following criteria: • Receive at least 1 dose of study treatment; • At least 2 post-baseline efficacy disease assessments, or discontinued treatment for any reason, or have disease progression/death prior to the second post-baseline disease assessment; • (3) Safety population: All participants who take at least 1 dose of study treatment; • (4) Pharmacokinetics population: All participants who receive at least 1 dose of study treatment and have at least 1 evaluable post-baseline measurement; • (5) Immunogenicity population: All participants who receive at least 1 dose of study treatment and have at least 1 evaluable post-baseline measurement.
The primary efficacy measure is ORR. Objective response rate is defined as the proportion of participants who achieve either CR or PR, determined by investigator assessment using RECIST Version 1.1. Confirmation of investigator-assessed ORR may be performed through IRC in the Phase 2b.
Disease Control Rate: Disease control rate is defined as the percentage of participants achieving complete or partial response or stable disease for at least 6 weeks as defined by RECIST Version1.1. The DCR and its 95% CI with Clopper-Pearson method are also calculated.
Next, response to treatment was evaluated. The “All Treated” patient population were patients who received at least 1 dose of study treatment.

[2] = lung cancer participants, up to 1750 mg; cited from earlier work
[3] = all treated population, IHC 1+, N=5, 1,050/1,400 mg IV
[4] = all treated population, IHC 1+, N=5, 1,050/1,400 mg IV, number of participants
[5] = all treated population, IHC 2+, N=11, 1,050/1,400 mg IV
[6] = all treated population, IHC 2+, N=11, 1,050/1,400 mg IV, number of participants
[7] = all treated population, IHC 3+, N=9, 1,050/1,400 mg IV
[8] = all treated population, IHC 3+, N=9, 1,050/1,400 mg IV, number of participants
[9] = all treated population, IHC NA, N=4, 1,050/1,400 mg IV
[10] = all treated population, IHC NA, N=4, 1,050/1,400 mg IV, number of participants
[11] = all treated population, Total, N=29, 1,050/1,400 mg IV
[12] = all treated population, Total, N=29, 1,050/1,400 mg IV, number of participants
[13] = response evaluable population, IHC 1+, N=4, 1,050/1,400 mg IV
[14] = response evaluable population, IHC 1+, N=4, 1,050/1,400 mg IV, number of participants
[15] = response evaluable population, IHC 2+, N=11, 1,050/1,400 mg IV
[16] = response evaluable population, IHC 2+, N=11, 1,050/1,400 mg IV, number of participants
[17] = response evaluable population, IHC 3+, N=9, 1,050/1,400 mg IV
[18] = response evaluable population, IHC 3+, N=9, 1,050/1,400 mg IV, number of participants
[19] = response evaluable population, Total, N=24, 1,050/1,400 mg IV
[20] = response evaluable population, Total, N=24, 1,050/1,400 mg IV, number of participants

Q: Which “Disease control rate (CR + PR + SD)” value [1, 3] does the source give for amivantamab here?
A: Its value is “(20.0%)”.

Q: And the “Not Evaluable (NE)” value [1, 3]?
A: The value was “(40.0%)”.

Q: What about the “Progressive Disease (PD)” value [1, 3] of the same substance?
A: The value was “(40.0%)”.

Q: What about the “Complete response (CR)” value [1, 4] of the same substance?
A: The value was 0.

Q: And the “Disease control rate (CR + PR + SD)” value [1, 4]?
A: The value was 1.

Q: What about the “Not Evaluable (NE)” value [1, 4] of the same substance?
A: The value was 2.

Q: What about the “Objective response rate (CR + PR)” value [1, 4] of the same substance?
A: Its value is 0.

Q: What about the “Partial response (PR)” value [1, 4] of the same substance?
A: The value was 0.

Q: And the “Progressive Disease (PD)” value [1, 4]?
A: Its value is 2.

Q: What about the “Disease control rate (CR + PR + SD)” value [1, 5] of the same substance?
A: Its value is “(9.1%)”.

Q: What about the “Not Evaluable (NE)” value [1, 5] of the same substance?
A: Its value is “(9.1%)”.

Q: And the “Progressive Disease (PD)” value [1, 5]?
A: Its value is “(81.8%)”.

Q: And the “Complete response (CR)” value [1, 6]?
A: Its value is 0.

Q: What about the “Disease control rate (CR + PR + SD)” value [1, 6] of the same substance?
A: Its value is 1.

Q: What about the “Not Evaluable (NE)” value [1, 6] of the same substance?
A: Its value is 1.

Q: What about the “Objective response rate (CR + PR)” value [1, 6] of the same substance?
A: Its value is 0.

Q: What about the “Partial response (PR)” value [1, 6] of the same substance?
A: The value was 0.

Q: And the “Progressive Disease (PD)” value [1, 6]?
A: Its value is 9.

Q: And the “Disease control rate (CR + PR + SD)” value [1, 7]?
A: The value was “(44.4%)”.

Q: What about the “Objective response rate (CR + PR)” value [1, 7] of the same substance?
A: The value was “(11.1%)”.

Q: What about the “Partial response (PR)” value [1, 7] of the same substance?
A: The value was “(11.1%)”.

Q: What about the “Progressive Disease (PD)” value [1, 7] of the same substance?
A: Its value is “(55.6%)”.

Q: What about the “Complete response (CR)” value [1, 8] of the same substance?
A: The value was 0.

Q: What about the “Disease control rate (CR + PR + SD)” value [1, 8] of the same substance?
A: Its value is 4.

Q: And the “Not Evaluable (NE)” value [1, 8]?
A: Its value is 0.

Q: And the “Objective response rate (CR + PR)” value [1, 8]?
A: Its value is 1.

Q: What about the “Partial response (PR)” value [1, 8] of the same substance?
A: The value was 1.

Q: And the “Progressive Disease (PD)” value [1, 8]?
A: Its value is 5.

Q: And the “Disease control rate (CR + PR + SD)” value [1, 9]?
A: The value was “(25.0%)”.

Q: And the “Progressive Disease (PD)” value [1, 9]?
A: The value was “(75.0%)”.

Q: And the “Complete response (CR)” value [1, 10]?
A: The value was 0.

Q: What about the “Disease control rate (CR + PR + SD)” value [1, 10] of the same substance?
A: The value was 1.

Q: And the “Not Evaluable (NE)” value [1, 10]?
A: Its value is 0.

Q: What about the “Objective response rate (CR + PR)” value [1, 10] of the same substance?
A: The value was 0.

Q: What about the “Partial response (PR)” value [1, 10] of the same substance?
A: The value was 0.

Q: What about the “Progressive Disease (PD)” value [1, 10] of the same substance?
A: Its value is 3.

Q: And the “Disease control rate (CR + PR + SD)” value [1, 11]?
A: Its value is “(24.1%)”.

Q: And the “Not Evaluable (NE)” value [1, 11]?
A: The value was “(10.3%)”.

Q: What about the “Objective response rate (CR + PR)” value [1, 11] of the same substance?
A: The value was “(3.4%)”.

Q: What about the “Partial response (PR)” value [1, 11] of the same substance?
A: The value was “(3.4%)”.

Q: What about the “Progressive Disease (PD)” value [1, 11] of the same substance?
A: Its value is “(65.5%)”.

Q: And the “Complete response (CR)” value [1, 12]?
A: The value was 0.

Q: And the “Disease control rate (CR + PR + SD)” value [1, 12]?
A: Its value is 7.

Q: And the “Not Evaluable (NE)” value [1, 12]?
A: Its value is 3.

Q: And the “Objective response rate (CR + PR)” value [1, 12]?
A: Its value is 1.

Q: What about the “Partial response (PR)” value [1, 12] of the same substance?
A: Its value is 1.

Q: What about the “Progressive Disease (PD)” value [1, 12] of the same substance?
A: Its value is 19.

Q: What about the “Disease control rate (CR + PR + SD)” value [1, 13] of the same substance?
A: The value was “(25.0%)”.

Q: And the “Not Evaluable (NE)” value [1, 13]?
A: Its value is “(25.0%)”.

Q: What about the “Progressive Disease (PD)” value [1, 13] of the same substance?
A: The value was “(50.0%)”.

Q: What about the “Complete response (CR)” value [1, 14] of the same substance?
A: The value was 0.

Q: And the “Disease control rate (CR + PR + SD)” value [1, 14]?
A: The value was 1.

Q: And the “Not Evaluable (NE)” value [1, 14]?
A: The value was 1.

Q: What about the “Objective response rate (CR + PR)” value [1, 14] of the same substance?
A: Its value is 0.

Q: And the “Partial response (PR)” value [1, 14]?
A: Its value is 0.

Q: What about the “Progressive Disease (PD)” value [1, 14] of the same substance?
A: Its value is 2.

Q: What about the “Disease control rate (CR + PR + SD)” value [1, 15] of the same substance?
A: The value was “(9.1%)”.

Q: And the “Not Evaluable (NE)” value [1, 15]?
A: Its value is “(9.1%)”.

Q: What about the “Progressive Disease (PD)” value [1, 15] of the same substance?
A: The value was “(81.8%)”.

Q: What about the “Complete response (CR)” value [1, 16] of the same substance?
A: The value was 0.

Q: And the “Disease control rate (CR + PR + SD)” value [1, 16]?
A: Its value is 1.

Q: And the “Not Evaluable (NE)” value [1, 16]?
A: Its value is 1.

Q: And the “Objective response rate (CR + PR)” value [1, 16]?
A: Its value is 0.

Q: What about the “Partial response (PR)” value [1, 16] of the same substance?
A: The value was 0.

Q: What about the “Progressive Disease (PD)” value [1, 16] of the same substance?
A: Its value is 9.

Q: What about the “Disease control rate (CR + PR + SD)” value [1, 17] of the same substance?
A: Its value is “(44.4%)”.

Q: And the “Objective response rate (CR + PR)” value [1, 17]?
A: The value was “(11.1%)”.

Q: And the “Partial response (PR)” value [1, 17]?
A: Its value is “(11.1%)”.

Q: What about the “Progressive Disease (PD)” value [1, 17] of the same substance?
A: Its value is “(55.6%)”.

Q: What about the “Complete response (CR)” value [1, 18] of the same substance?
A: Its value is 0.

Q: What about the “Disease control rate (CR + PR + SD)” value [1, 18] of the same substance?
A: The value was 4.

Q: What about the “Not Evaluable (NE)” value [1, 18] of the same substance?
A: The value was 0.

Q: What about the “Objective response rate (CR + PR)” value [1, 18] of the same substance?
A: Its value is 1.

Q: What about the “Partial response (PR)” value [1, 18] of the same substance?
A: Its value is 1.

Q: And the “Progressive Disease (PD)” value [1, 18]?
A: The value was 5.

Q: What about the “Not Evaluable (NE)” value [1, 19] of the same substance?
A: Its value is “(8.3%)”.

Q: And the “Objective response rate (CR + PR)” value [1, 19]?
A: Its value is “(4.2%)”.

Q: And the “Partial response (PR)” value [1, 19]?
A: Its value is “(4.2%)”.

Q: And the “Progressive Disease (PD)” value [1, 19]?
A: The value was “(66.7%)”.

Q: What about the “Complete response (CR)” value [1, 20] of the same substance?
A: Its value is 0.

Q: What about the “Disease control rate (CR + PR + SD)” value [1, 20] of the same substance?
A: Its value is 6.

Q: What about the “Not Evaluable (NE)” value [1, 20] of the same substance?
A: Its value is 2.

Q: And the “Objective response rate (CR + PR)” value [1, 20]?
A: The value was 1.

Q: And the “Partial response (PR)” value [1, 20]?
A: Its value is 1.

Q: What about the “Progressive Disease (PD)” value [1, 20] of the same substance?
A: Its value is 16.

Q: What about the maximum tolerated dose [2] of the same substance?
A: Its maximum tolerated dose is “no maximum tolerated dose identified”.
